Assays:
[1] = Release kinetics / degradation of OLA and AA in PBS by UV-Vis; assay type: physicochemical; details: buffer, pH 7.4
Method: Briefly, 0.9 mg of NP was weighed into a quartz cuvette and then 3 mL of PBS solution (pH=7.4) was carefully added to the cuvette. The absorbance curve from 200 nm to 400 nm was measured continuously every half hour until the plateau was reached. The amount of OLA and ascorbic acid released was determined at wavelengths of 311 nm and 265 nm, respectively. This technique allowed simultaneous quantification of the two molecules by monitoring the absorbance at 311 nm (OLA) and 265 nm (AA) (FIG. 1).
All measurements were performed in triplicate.
The degradation of AA followed an exponential decay according to the equation y(t)=e^−t/τ, where τ corresponds to the half-life of the molecule.

PANC-1 = experiment: Cytotoxicity, Sulforhodamine B proliferation assay; assay type: cell-based, Human
Method: Human pancreatic ductal adenocarcinoma cell lines MIA PaCa-2 and PANC1 and the murine pancreatic cancer cell line Panc02 were used. All cell lines were cultured in Dulbecco's modified Eagle medium (DMEM) supplemented with 10% fetal bovine serum and 1% streptomycin penicillin (Sigma-Aldrich). Cells were maintained in monolayer culture in an atmosphere of 37° C. and 5% CO2 and passaged using 0.25% trypsin and 0.02% EDTA.
Panc02, PANC-1 and MIA PaCa-2 cell lines were treated with NP-ACP-OLA and NP-ACP-OLA-AA to determine their cytotoxic effect. The toxicity of NP-ACP and NP-ACP-AA (controls) was tested in all cell lines. For this, PANC-1 cells were seeded at densities of 8×10^3 cells/well and Panc02 and MIA PaCa-2 cells at densities of 2.5×10^3 cells/well in 48-well plates, incubated overnight and exposed to DMSO (OLA solvent), OLA (in different concentration ranges depending on the cell line used), NPs with and without OLA and ascorbic acid for 72 h. Subsequently, the cells were fixed with 10% trichloroacetic acid for 20 minutes and washed three times with distilled water. […] Finally, the optical density (OD) of the dye was measured with a Titertek Multiskan colorimeter (Flow) at 492 nm. Proliferation percentages (Pf %) were calculated as: Pf %=(OD of sample/OD of negative control)×100. […]

PANC-1 cell migration = experiment: Cell migration assay; assay type: cell-based, Human; details: PANC-1, Cl25 of OLA, monitored 72 h
Method: PANC-1 cell migration is a phenomenon related to PARP1 inhibition. To study the effect of NP-ACP-OLA-AA with respect to free OLA and OLA-NPs, the following treatment was carried out with the PANC-1 cell line. NP-ACP-AA was used as a control.
The PANC- 1 cell line was seeded in a 12-well plate (Thermo Fisher) and grown to 95-100% confluence in medium supplemented with DMEM (Sigma-Aldrich). Then, a […] was manually performed using a pipette tip. The next day, dead cells were removed using phosphate buffered saline (PBS) and the culture medium was replaced with DMEM without FBS to prevent cell proliferation. Then, Cl25 of OLA concentration (free and OLA-NPs) was added to the wells and the cells were incubated for 72 h during which the migratory process was monitored using a DM-IL LED microscope. The percentage of migration was calculated by measuring the tumor cell free area at different times using ImageJ software with the Chemotaxis and Migration Tool add-on.

PANC-1-induced tumors = experiment: In vivo tumor growth and survival, mice with PANC-1-induced tumors; details: 25 mg/kg OLA intraperitoneally every 3 days, 10 cycles
Method: Male and female NOD scid gamma mice generated by the Centro de Instrumentación Científica of the University of Granada were used for the in vivo study. All mice (body weight: 20-25 g) were housed in cages with free access to water and food prior to the experiments and were maintained under controlled temperature, light and humidity (22.0±2° C., 12 h light-dark cycle and 40-70% relative humidity), in specific pathogen-free conditions with sterile atmosphere controlled by HEPA filters. The study was approved by the Ethical Committee for Animal Experimentation of the University of Granada (reference code: 16/01/2020/005) and was performed in accordance with its guidelines. Tumors were induced by subcutaneous injection of 9×10^5 cells derived from the PANC1 cell line into the right flank of NOD-SCID gamma mice. When the tumor was palpable, animals were randomly divided into four groups (n=8-10 mice per group, selecting the tumor-inducing mice): PANC1 mice treated with OLA solvent-(group I), OLA (group II), NP-ACP-AA (group III) and NP-ACP-OLA-AA (group IV). The OLA solvent was 5% DMSO, 40% PEG300, 5% Tween-80 and 50% saline and the NPs were dispersed in saline. […] Weights and deaths were carefully recorded throughout the period and tumor volume was measured with a digital caliper. Tumor volume (mm^3) was calculated as follows: V (mm^3)=(a×b2×π)/6. […]

SMILES	time AA remained before being degraded ([1]; 10.5 ppm) [h]	half-life at 10.5 ppm [1] [h]	Cl50 in PANC-1 higher than in MIA PaCa-2 (PANC-1; PANC-1 vs MIA PaCa-2) [times]	Cl50 in PANC-1 higher than in Panc02 (PANC-1; PANC-1 vs Panc02) [times]	inhibition of cell migration compared to untreated cells (PANC-1 cell migration)	decrease in tumor volume compared to untreated control mice (PANC-1-induced tumors) [%]	survival of mice (PANC-1-induced tumors) [%]
O=C1O[C@H]([C@@H](O)CO)C(O)=C1O [AA, ascorbic acid]	≤ 12	2.7	–	–	–	–	–
O=C(c1cc(Cc2n[nH]c(=O)c3ccccc23)ccc1F)N1CCN(C(=O)C2CC2)CC1 [OLA, Olaparib]	–	–	8.5	7.5	inhibited migration only at 72 hours	28.3	44
